Assay results from the NIST ThermoML archive (doi:10.1016/j.jct.2015.11.010).
± gives the expanded uncertainty stated by the source.

Assays:
[1] = Crystal; for mass density: 101.33 kPa, X-ray diffraction
[2] = Molar enthalpy of transition or fusion; conditions: Crystal; DSC
[3] = molar heat capacity at constant pressure; conditions: 101.33 kPa, Crystal, Small sample (50 mg) DSC
[4] = molar enthalpy of vaporization or sublimation; conditions: 298.15 K; Crystal; Static calorimetry

SMILES	mass density ([1]; 150 K) [kg/m3]	mass density ([1]; 296 K) [kg/m3]	Triple point temperature ([1]; DSC) [K]	Molar enthalpy of transition or fusion [2] [kcal/mol]	molar heat capacity at constant pressure ([3]; 298.15 K) [J/K/mol]	molar heat capacity at constant pressure ([3]; 303.15 K) [J/K/mol]	molar heat capacity at constant pressure ([3]; 308.15 K) [J/K/mol]	molar heat capacity at constant pressure ([3]; 313.15 K) [J/K/mol]	molar heat capacity at constant pressure ([3]; 318.15 K) [J/K/mol]	molar heat capacity at constant pressure ([3]; 323.15 K) [J/K/mol]	molar heat capacity at constant pressure ([3]; 328.15 K) [J/K/mol]	molar heat capacity at constant pressure ([3]; 333.15 K) [J/K/mol]	molar enthalpy [4] [kcal/mol]
O.Sc1ncc[nH]1.Sc1ncc[nH]1 [2-mercaptoimidazole hemihydrate]	1489.4 ± 7.3												
Sc1ncc[nH]1 [2-mercaptoimidazole]		1424.1 ± 7	503.5 ± 0.8	4.18 ± 0.115	112 ± 7.7	112.4 ± 7.9	112.9 ± 7.9	112.6 ± 8.9	113.4 ± 8.6	114.3 ± 8.6	115.3 ± 8.6	116.5 ± 8.6	27.3 ± 0.335
